Data reported in patent US9480695B2, “Methods for inducing orexin neurons and agent for treating narcolepsy or eating disorder” (THE UNIVERSITY OF TOKYO, priority 2011, dated 2016).

Legend:
Format in all cases: cell-based
[1] = tested on: Mouse ES cells (J1 strain); experiment: Hcrt expression with ManNAc plus Sirt inhibitor or Ogt inhibitor, neural differentiation from mouse ES cell, RT-PCR; settings: ManNAc 1.0 mM from 0th day, EX-527 50 nM on 7th day, collected 10th day; FIG. 8
Protocol: According to the same manner as that described in Example 1, mouse ES cells (J1 strain) were cultured for 10 days for differentiation induction into a nerve cell. A protocol of inducing differentiation into a nerve cell is shown in the upper column of FIG. 11. From the initiation of differentiation culturing (0th day), ManNAc was added to a neural differentiation medium so that the concentration became 1.0 mM, and the medium was exchanged on 4th and 7th days of differentiation culturing. In addition, from 4th day of differentiation culturing, 5 nM recombinant human BMP4 (Wako) was added. On 7th day of differentiation culturing, EX-527 (SIGMA-ALDRICH) was added to a neural differentiation medium so that the concentration became 50 nM or BADGP (SIGMA-ALDRICH) was added to a neural differentiation medium so that the concentration became 1 or 5 mM, and on 10th day of differentiation culturing, cells were collected and subjected to RT-PCR. The conditions of RT-PCR are the same as those of Example 1.

[2] = tested on: human iPS cell strain 201B7; experiment: Hcrt expression with ManNAc plus Sirt inhibitor and Ogt inhibitor, neural differentiation from human iPS cell, RT-PCR; settings: ManNAc 1.0 mM from 0th day, EX-527 50 nM and/or BADGP 5 mM on 14th day, collected 20th day; FIG. 10
Protocol: A human iPS cell strain 201B7 (HSP0001) was obtained from Riken BioResource Center via National BioResource Project (MEXT, Japan). The human iPS cell was maintained on a feeder layer of a mitomycin C-treated STO/Neo resistant/LIF (SNL) feeder cell in a primate ES medium (ReproCELL) complemented with 5 ng/mL recombinant human bFGF (Wako). The human iPS cell was co-cultured with PA6 for 20 days, for differentiation induction into a nerve with a SIDA and BMP4 system. From 7th day, 5 nM BMP4 was complemented. A detailed protocol of differentiation induction into a nerve cell is shown in the lower column of FIG. 11. From the initiation of differentiation culturing (0th day), ManNAc was added to a neural differentiation medium so that the concentration became 1.0 mM, and on 7th, 10th and 14th days of differentiation culturing, the medium was exchanged. In addition, from 7th day of differentiation culturing, 5 nM recombinant human BMP4 (Wako) was added. On 14th day of differentiation culturing, EX-527 (SIGMA-ALDRICH) was added to a neural differentiation medium so that the concentration became 50 nM, or BADGP (SIGMA-ALDRICH) was added to a neural differentiation medium so that the concentration became 5 mM, and on 20th day of differentiation culturing, cells were collected and subjected to RT-PCR. The conditions of RT-PCR are the same as those of Example 1.

[3] = tested on: Mouse ES cells (J1 strain); experiment: Induction of Hcrt expression in neural differentiation from mouse ES cells, SDIA differentiation culture system, RT-PCR; settings: for Expression of Hcrt with changed time of addition: 1.0 mM, addition time varied, FIG. 3; for Expression of an orexin gene (Hcrt): added from initiation of differentiation culturing at 0.2 and 1.0 mM, cells collected on 10th day, FIG. 2
Protocol: Mouse ES cells (J1 strain) which had been maintained in a medium for an ES cell [DMEM (Wako) added with 15% FBS (Biowest), 1 mM sodium pyruvate (Invitrogen), […] (Invitrogen), 2 mM L-glutamine (Invitrogen), 1 mM non essential amino acid (Invitrogen), 50 U/ml penicillin/50 μg/ml streptomycin (Invitrogen), 2000 U leukemia inhibitory factor (Chemicon, CA)] were seeded on a 10 cm culture dish so that the cell count became 1×10^5 cells per culture dish on which PA6 stromal cells had been seeded in advance, and differentiation induction was performed in a medium for neural differentiation [Glasgow MEM (Invitrogen) added with 10% KSR (Invitrogen), […] (Invitrogen), 1 mM non essential amino acid (Invitrogen), 50 U/ml penicillin/50 μg/ml streptomycin (Invitrogen)] for 10 days. On 4th and 7th days of differentiation culturing, the medium was exchanged. In addition, from 4th day of differentiation culturing, 5 nM recombinant human BMP4 (Wako) was added (FIG. 1). On 10th day of differentiation culturing, cells were collected and pelletized by a centrifugation operation to remove the culture medium. Thereafter, the pellets were immediately frozen in liquid nitrogen and stored at −80° C. until use.
The total RNA was extracted from the collected cells using RNeasy plus Mini Kit (QIAGEN). Then, a reverse transcription reaction was performed in a reaction liquid containing 1 μg of the total RNA, and Oligo (dT) using SuperScript III First Strand Synthesis System (Invitrogen) to synthesize a cDNA.
A PCR reaction was performed on a 10 μl scale, 1 U of LA-Taq DNA Polymerase (Takara) was added to 0.5 μl of a cDNA, 5 μl of 2×GC Buffer I, each 200 μM of dNTP, 1.5 mM MgCl2, and each primer having a final concentration of 0.2 μM, thermal denaturation was performed at 95° C. for 3 minutes, and the reaction was performed under the condition of (30 seconds at 95° C., 30 seconds at 55° C., and 30 seconds at 72° C.)×35 cycles (20 cycles in the case of Actb). The primers used are shown below.
Each PCR product was electrophoresed on a 2% agarose gel, stained with ethidium bromide, and a band was observed by UV irradiation.

[4] = tested on: Mouse ES cells (J1 strain); experiment: Hcrt expression in mouse ES cells, SFEB/gfCDM differentiation culture system, RT-PCR; settings: 1.0 mM from 7th day of differentiation culturing; cells collected on 25th day; FIG. 5
Protocol: Mouse ES cells (J1 strain) which had been maintained in a medium for an ES cell were seeded on a 96-well low adhering round-bottom culture dish (Nunc) so that the cell count became 10,000 cells per well, and cultured with gfCDM [IMDM/F12 (Invitrogen) added with 5 mg/ml BSA (SIGMA), 450 μM Monothioglycerol (Wako), 1× chemically defined lipid concentrate (Invitrogen), 50 U/ml penicillin/50 μg/ml streptomycin] for 7 days. The cells were cultured in 150 μl of a medium per well. On 7th day of differentiation culturing, the medium was exchanged with a DFK medium [DMEM/F12 (Invitrogen) added with 7 g/1 glucose, 10% KSR, 50 U/ml penicillin/50 μg/ml streptomycin], and on 10th day, half the amount of the medium was exchanged with a DFNB medium [7 g/1 glucose, 1×N2 (Wako), 1×B27 (Invitrogen)] containing 10 ng/ml CNTF. On 13th day of culturing, cells were detached with 0.05% trypsin/EDTA, seeded on a culture dish (Falcon) which had been treated with poly-D-lysine/laminin so that the cell count became 4.8×10^6 cells per 10 cm culture dish, and cultured in a DFNB medium containing 10% FBS, 10 ng/ml CNTF, 50 ng/ml BDNF and 50 ng/ml NT3. The medium was exchanged every 3 days. On 25th day of differentiation culturing, cells were collected and pelletized by a centrifugation operation to remove the culture medium. Thereafter, the pellets were immediately frozen in liquid nitrogen, and stored at −80° C. until use.
The analysis was performed by the same method as that of Example 1.

With `NC(=O)C1CCCc2c1[nH]c1ccc(Cl)cc21` (stereo not shown) [EX-527, 6-chloro-2,3,4,9-tetrahydro-1H-carbazole-1-carboxamide, reference compound] as the compound, how does the “Expression of an orexin gene (Hcrt)” value [1] read?
Its value is “expression of Hcrt was recognized”.

And the “Expression of an orexin gene (Hcrt)” value [2]?
The value was “recognized in a ManNAc-added section and an EX-527-added section to the same extent”.

What does the source list for `CC(=O)N[C@H]1C(O)O[C@H](CO)[C@@H](O)[C@@H]1O` (stereo partly drawn) [GlcNAc, N-acetyl-D-glucosamine]?
Expression of Hcrt with changed time of addition [3]: observed only in a ManNAc-added section; Expression of an orexin gene (Hcrt) [3]: recognized only in a ManNAc-added section

With `CC(=O)N[C@H]1[C@H]([C@H](O)[C@H](O)CO)OC(O)(C(=O)O)C[C@@H]1O` (stereo partly shown) [Neu5Ac, N-acetylneuraminic acid] as the compound, how does the “Expression of Hcrt with changed time of addition” value [3] read?
Its value is “observed only in a ManNAc-added section”.

And the “Expression of an orexin gene (Hcrt)” value [3]?
The value was “recognized only in a ManNAc-added section”.

And the “Expression of Hcrt” value [4]?
The value was “expression of Hcrt was recognized”.
